Measured values reported in paper PMC9948168, “Vanillin-Based Indolin-2-one Derivative Bearing a Pyridyl Moiety as a Promising Anti-Breast Cancer Agent via Anti-Estrogenic Activity” (ACS Omega, 2023).

Assays:
Experiment in all cases: NCI-60 one-dose screening
Type in all cases: cell-based
CCRF-CEM = conditions: Homo sapiens, Leukemias, read-out: GI (%)
DU-145 = conditions: Homo sapiens, DU-145, Prostate Cancer, read-out: GI (%)
EKVX = conditions: Homo sapiens, Non-Small Cell Lung Cancer, read-out: GI (%)
HCC-2998 = conditions: Homo sapiens, HCC-2998, Colon Cancer, read-out: GI (%)
HCT-15 = conditions: Homo sapiens, HCT-15, Colon Cancer, read-out: GI (%)
HL-60(TB) = conditions: Homo sapiens, Leukemias, read-out: GI (%)
HS 578T = conditions: Homo sapiens, Breast Cancer, read-out: GI (%)
IGROV1 = conditions: Homo sapiens, IGROV-1, IGROV1, Ovarian Cancer, read-out: GI (%)
K-562 = conditions: Homo sapiens, K562, K-562, Leukemias, read-out: GI (%)
KM12 = conditions: Homo sapiens, KM12, Colon Cancer, read-out: GI (%)
LOX IMVI = conditions: Homo sapiens, Melanoma, read-out: GI (%)
MALME-3M = conditions: Homo sapiens, Melanoma, read-out: GI (%)
MCF7 = conditions: Homo sapiens, MCF7, 10 μM; MCF7, Breast Cancer; read-out: GI (%)
MDA-MB-435 = conditions: Homo sapiens, MDA-MB-435, Melanoma, read-out: GI (%)
MDA-MB-468 = conditions: Homo sapiens, MDA-MB-468, Breast Cancer, read-out: GI (%)
MOLT-4 = conditions: Homo sapiens, MOLT-4, Leukemias, read-out: GI (%)
NCI-H226 = conditions: Homo sapiens, NCI-H226, Non-Small Cell Lung Cancer, read-out: GI (%)
NCI-H23 = conditions: Homo sapiens, NCI-H23, Non-Small Cell Lung Cancer, read-out: GI (%)
NCI-H460 = conditions: Homo sapiens, NCI-H460, Non-Small Cell Lung Cancer, read-out: GI (%)
NCI-H522 = conditions: Homo sapiens, NCI-H522, Non-Small Cell Lung Cancer, read-out: GI (%)
NCI/ADR-RES = conditions: Homo sapiens, Ovarian Cancer, read-out: GI (%)
OVCAR-3 = conditions: Homo sapiens, OVCAR-3, 10 μM; OVCAR-3, Ovarian Cancer; read-out: GI (%)
OVCAR-5 = conditions: Homo sapiens, OVCAR-5, Ovarian Cancer, read-out: GI (%)
OVCAR-8 = conditions: Homo sapiens, OVCAR-8, Ovarian Cancer, read-out: GI (%)
PC-3 = conditions: Homo sapiens, PC-3, Prostate Cancer, read-out: GI (%)
RPMI-8226 = conditions: Homo sapiens, RPMI-8226, Leukemias, read-out: GI (%)
SF-268 = conditions: Homo sapiens, SF-268, CNS Cancer, read-out: GI (%)
SK-MEL-28 = conditions: Homo sapiens, SK-MEL-28, Melanoma, read-out: GI (%)
SK-MEL-5 = conditions: Homo sapiens, SK-MEL-5, Melanoma, read-out: GI (%)
SN12C = conditions: Homo sapiens, Renal Cancer, read-out: GI (%)
SNB-19 = conditions: Homo sapiens, SNB-19, CNS Cancer, read-out: GI (%)
TK-10 = conditions: Homo sapiens, TK-10, Renal Cancer, read-out: GI (%)
U251 = conditions: Homo sapiens, U-251, U251, CNS Cancer, read-out: GI (%)
UACC-257 = conditions: Homo sapiens, UACC-257, Melanoma, read-out: GI (%)
UO-31 = conditions: Homo sapiens, UO-31, Renal Cancer, read-out: GI (%)

Row | Structure (SMILES) | inhibition at 10 µM (CCRF-CEM) | inhibition at 10 µM (DU-145) | inhibition at 10 µM (EKVX) | inhibition at 10 µM (HCC-2998) | inhibition at 10 µM (HCT-15) | inhibition at 10 µM (HL-60(TB)) | inhibition at 10 µM (HS 578T) | inhibition at 10 µM (IGROV1) | inhibition at 10 µM (K-562) | inhibition at 10 µM (KM12) | inhibition at 10 µM (LOX IMVI) | inhibition at 10 µM (MALME-3M) | inhibition at 10 µM (MCF7) | inhibition at 10 µM (MDA-MB-435) | inhibition at 10 µM (MDA-MB-468) | inhibition at 10 µM (MOLT-4) | inhibition at 10 µM (NCI-H226) | inhibition at 10 µM (NCI-H23) | inhibition at 10 µM (NCI-H460) | inhibition at 10 µM (NCI-H522) | also measured
1 | COc1cc(C=C2C(=O)Nc3ccccc32)ccc1OCc1ccccn1 (mixture of isomers) [6e] | 8.27% | 1.98% | 22.4% | -16.2% | 20% | 13% | -1.16% | 21% | 19.6% | 3.09% | 3.36% | 6.1% | 50 to 65% | -7.05% | 14.2% | 12.5% | 6.29% | 12.6% | 0.59% | 5.36% | inhibition at 10 µM (NCI/ADR-RES): 4.39%; inhibition at 10 µM (OVCAR-3): 0.9%; inhibition at 10 µM (OVCAR-5): -3.35%; inhibition at 10 µM (OVCAR-8): 0.31%; inhibition at 10 µM (PC-3): 7.05%; inhibition at 10 µM (RPMI-8226): 15.2%; inhibition at 10 µM (SF-268): 6.47%; inhibition at 10 µM (SK-MEL-28): -7.83%; inhibition at 10 µM (SK-MEL-5): 11.7%; inhibition at 10 µM (SN12C): 2.56%; inhibition at 10 µM (SNB-19): 9.82%; inhibition at 10 µM (TK-10): -51.2%; inhibition at 10 µM (U251): 9.28%; inhibition at 10 µM (UACC-257): -10.9%; inhibition at 10 µM (UO-31): 30.7%
2 | COc1cc(/C=C2/C(=O)Nc3cc(Cl)ccc32)ccc1OCc1ccccn1 [6o] | -8.83% | -7.21% | 25.3% | -11.7% | 7.58% | -17.3% | -1.2% | 25.2% | 8.79% | 2.85% | 2.38% | 4.92% | 27.7% | -6.9% | -3.25% | 3.45% | 5.24% | 4.55% | -3.23% | -1.8% | inhibition at 10 µM (NCI/ADR-RES): -7.14%; inhibition at 10 µM (OVCAR-3): -15.5%; inhibition at 10 µM (OVCAR-5): 2.11%; inhibition at 10 µM (OVCAR-8): -2.7%; inhibition at 10 µM (PC-3): 2.25%; inhibition at 10 µM (RPMI-8226): -0.91%; inhibition at 10 µM (SF-268): -6.37%; inhibition at 10 µM (SK-MEL-28): -7.43%; inhibition at 10 µM (SK-MEL-5): 1.29%; inhibition at 10 µM (SN12C): -4.12%; inhibition at 10 µM (SNB-19): -1.66%; inhibition at 10 µM (TK-10): -69.3%; inhibition at 10 µM (U251): -7.72%; inhibition at 10 µM (UACC-257): -22.8%; inhibition at 10 µM (UO-31): 16.6%
3 | COc1cc(C=C2C(=O)Nc3ccc(Cl)cc32)ccc1OCc1ccccn1 (mixture of isomers) [6j] | 2.39% | -7.75% | 27% | -6.73% | 22.8% | 3.78% | -2.66% | 13.4% | 5.33% | -0.52% | 14.8% | 1.35% | 63% | -3.49% | 14.6% | 4.33% | 6.59% | 9.09% | -4.56% | 4.56% | inhibition at 10 µM (NCI/ADR-RES): 5.4%; inhibition at 10 µM (OVCAR-3): 7.98%; inhibition at 10 µM (OVCAR-5): 0.34%; inhibition at 10 µM (OVCAR-8): 3.83%; inhibition at 10 µM (PC-3): 11.7%; inhibition at 10 µM (RPMI-8226): 0.53%; inhibition at 10 µM (SF-268): 1.24%; inhibition at 10 µM (SK-MEL-28): -15.1%; inhibition at 10 µM (SK-MEL-5): 3.73%; inhibition at 10 µM (SN12C): 3.96%; inhibition at 10 µM (SNB-19): 8.13%; inhibition at 10 µM (TK-10): -46.6%; inhibition at 10 µM (U251): 5.39%; inhibition at 10 µM (UACC-257): -5.04%; inhibition at 10 µM (UO-31): 29.6%
4 | COc1cc(/C=C2/C(=O)Nc3ccccc32)ccc1OCc1ccc(F)cc1 [6c] | -2.41% | -6.42% | 2.35% | -18.9% | -1.14% | -15.2% | -15.2% | -1.33% | -3.95% | -0.58% | 2.75% | 0.21% | 12.2% | -3.45% | -2.14% | 3.23% | -0.42% | 1.03% | 13.6% | 8.05% | inhibition at 10 µM (NCI/ADR-RES): -2.39%; inhibition at 10 µM (OVCAR-3): -16.7%; inhibition at 10 µM (OVCAR-5): -6.64%; inhibition at 10 µM (OVCAR-8): -1.99%; inhibition at 10 µM (PC-3): -0.92%; inhibition at 10 µM (RPMI-8226): -6.91%; inhibition at 10 µM (SF-268): -5.39%; inhibition at 10 µM (SK-MEL-28): -10.2%; inhibition at 10 µM (SK-MEL-5): -2.32%; inhibition at 10 µM (SN12C): 0.05%; inhibition at 10 µM (SNB-19): 0.68%; inhibition at 10 µM (TK-10): -29.6%; inhibition at 10 µM (U251): -6.26%; inhibition at 10 µM (UACC-257): -18.2%; inhibition at 10 µM (UO-31): 15.3%
